This passage reports GI50 and TGI results from PubChem BioAssay (NCI).

Among the test systems are 786-0 renal; CAKI-1 renal; HOP-92 NSCLC; MDA-N; OVCAR-3 ovarian; SF-268 CNS; SK-OV-3 ovarian; SNB-75 CNS; TK-10 renal; DMS 114 small cell lung.
Assay in all cases: NCI tumour cell line growth inhibition, 48 h

Values joined by “and” are separate entries in the source; they are usually repeats but may differ in a detail not shown here. Equal entries are not always repeated.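 48-hour exposure; five concentrations; linearly interpolated endpoints. GI50: concentration for 50% inhibition of growth. TGI denotes the concentration required for complete inhibition of growth.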 A value given as a limit tells only on which side of the number the result lay.

Take `NC(CSC(c1ccccc1)(c1ccccc1)c1ccccc1)C(=O)O` (stereo not given): the GI50 with 786-0 renal is 1.41 µM and 4.24 µM; in the test with CAKI-1 renal it was 15.2 µM and 7.17 µM; in the test on HOP-92 NSCLC, 2.17 µM and 10.1 µM; in the test with OVCAR-3 ovarian, 2.46 µM and 2.18 µM; in the test with SF-268 CNS, 4.35 µM and 1.71 µM; in the test on SK-OV-3 ovarian, 0.425 µM. For the same compound, the values for the GI50 with SNB-75 CNS and with TK-10 renal were 2.34 µM and 6.22 µM, respectively. In addition, the TGI was 70.3 µM and > 100 µM with 786-0 renal; 51.6 µM and > 100 µM in the test with CAKI-1 renal; 12.5 µM in the test with MDA-N; 9.48 µM and 27.9 µM and 13 µM in the test with OVCAR-3 ovarian; 63.3 µM and 85.7 µM in the test with SF-268 CNS; 14.8 µM and > 100 µM with SK-OV-3 ovarian. Also, the TGI with SNB-75 CNS was 9.45 µM and 50.6 µM and 29.2 µM; in the test with TK-10 renal, 83.5 µM.

For the compound `O=C(NCCCN1CCN(CCCNC(=O)c2cccc3ccccc23)CC1)c1cccc2ccccc12`, the TGI was over 100 µM in the test on 786-0 renal; over 100 µM with CAKI-1 renal; over 100 µM in the test on DMS 114 small cell lung; 21.3 µM in the test on HOP-92 NSCLC; over 100 µM in the test with OVCAR-3 ovarian; 57.6 µM in the test on SK-OV-3 ovarian. For the same compound, the figures for the TGI with SNB-75 CNS and in the test with TK-10 renal were 41.7 µM and over 100 µM, respectively.

Regarding `CN(C)CCCNc1ccnc2c([N+](=O)[O-])cccc12`, the TGI in the test with 786-0 renal is over 100 µM; with CAKI-1 renal, over 100 µM; with DMS 114 small cell lung, 5.56 µM; in the test on OVCAR-3 ovarian, over 100 µM; in the test with SF-268 CNS, 67.4 µM; in the test with TK-10 renal, over 100 µM.

For the compound `COc1ccc(C2=C(OC(C)=O)c3cccn3-c3ccc(Cl)cc3S2)cc1`, the TGI was over 10 µM in the test with 786-0 renal; over 10 µM in the test with CAKI-1 renal; 6.07 µM in the test on HOP-92 NSCLC; 4.51 µM in the test on MDA-N; over 10 µM in the test with SF-268 CNS; over 10 µM in the test on SK-OV-3 ovarian. Moreover, the TGI with SNB-75 CNS and in the test with TK-10 renal was over 10 µM in each case.

On to `COc1ccc([N+](=O)[O-])c2c(NCCCN(C)C)c(C)c(C)nc12`, for which the TGI in the test on 786-0 renal, with CAKI-1 renal, with HOP-92 NSCLC, with MDA-N, with OVCAR-3 ovarian and in the test on SF-268 CNS was over 100 µM throughout. Moreover, the TGI with SK-OV-3 ovarian, with SNB-75 CNS and with TK-10 renal was over 100 µM each time.

For `CCN(Cc1cc(Cl)cc(C)c1O)Cc1c(O)ccc2ccccc12`, the TGI was 34 µM in the test on 786-0 renal; 28.8 µM in the test with CAKI-1 renal; 26.2 µM with HOP-92 NSCLC; 35.8 µM in the test on MDA-N; 29 µM in the test on OVCAR-3 ovarian; 34.8 µM with SF-268 CNS. For the same compound, the TGI in the test on SK-OV-3 ovarian was 29.8 µM; in the test on SNB-75 CNS, 24.1 µM; in the test on TK-10 renal, 31 µM.

As for `CC1=CC(=O)NP(=O)(Oc2ccc(Cl)cc2)N1` (stereo not given), the TGI in the test on 786-0 renal, in the test on CAKI-1 renal, with DMS 114 small cell lung, in the test on HOP-92 NSCLC, with OVCAR-3 ovarian and in the test with SF-268 CNS was over 100 µM in each case. Also, the TGI in the test with SK-OV-3 ovarian, with SNB-75 CNS and in the test on TK-10 renal was over 100 µM throughout.

Take `Nc1nc(N)nc(CCCCc2nc(N)nc(N)n2)n1`: the TGI in the test on 786-0 renal, in the test on CAKI-1 renal, in the test with HOP-92 NSCLC, with MDA-N, in the test with OVCAR-3 ovarian and with SF-268 CNS was over 100 µM in each case. The TGI in the test with SK-OV-3 ovarian, with SNB-75 CNS and in the test on TK-10 renal was over 100 µM throughout.

Turning to `NCC(=O)Nc1ccc(Cl)cc1C(=O)c1ccc[nH]1`, the TGI was over 100 µM with 786-0 renal; over 100 µM with CAKI-1 renal; over 76.5 µM in the test on HOP-92 NSCLC; over 100 µM with MDA-N; over 100 µM with OVCAR-3 ovarian; over 100 µM in the test on SF-268 CNS. Also, the TGI in the test with SK-OV-3 ovarian, in the test with SNB-75 CNS and in the test on TK-10 renal was over 100 µM throughout.

Regarding `C=CC[P@]1(=O)O[C@H](c2ccccc2)C(C)N1C(C)C` (stereo not given in full), the TGI in the test on 786-0 renal, in the test on DMS 114 small cell lung, with HOP-92 NSCLC, with OVCAR-3 ovarian, in the test on SF-268 CNS and in the test on SK-OV-3 ovarian was over 100 µM throughout. The TGI with SNB-75 CNS and in the test on TK-10 renal was over 100 µM throughout.

With `C=C1C(=O)OC2CC1C(OC(=O)/C=C/c1ccccc1)C/C(C)=C/CC/C(C)=C/CCC2(C)O` (stereo not given), the TGI in the test with 786-0 renal turned out to be 2.31 µM; in the test on CAKI-1 renal, 2.78 µM; in the test with HOP-92 NSCLC, 4.03 µM; in the test on MDA-N it was 2.67 µM; with OVCAR-3 ovarian, 2.87 µM; in the test with SF-268 CNS, 3.81 µM. The TGI in the test on SK-OV-3 ovarian was found to be 5.46 µM; with SNB-75 CNS, 2.87 µM; with TK-10 renal it was 3.17 µM.

In the case of `O=C1OC(c2ccc([N+](=O)[O-])cc2)=N/C1=C\c1ccc(Cl)cc1`, the TGI in the test with 786-0 renal, in the test with CAKI-1 renal, in the test on HOP-92 NSCLC, in the test on MDA-N, in the test with OVCAR-3 ovarian and with SF-268 CNS was over 100 µM in each case. Besides, the TGI in the test on SK-OV-3 ovarian, in the test with SNB-75 CNS and with TK-10 renal was over 100 µM in each case.

`CC(=O)CC[N+](C)(C)C`: the TGI in the test on 786-0 renal is 59.3 µM; in the test on CAKI-1 renal, 3.83 µM; in the test on HOP-92 NSCLC, 22.7 µM; in the test with MDA-N it was over 100 µM; in the test with OVCAR-3 ovarian, 40.7 µM; in the test with SF-268 CNS, 76.8 µM. Besides, the TGI with SK-OV-3 ovarian amounted to 51.9 µM; in the test on SNB-75 CNS, 70.3 µM; in the test on TK-10 renal it was 38.9 µM.

As to `C=CCCC(O)c1cc(C)c(O)c(C)c1` (stereo not given), the TGI with 786-0 renal, with DMS 114 small cell lung, with OVCAR-3 ovarian, in the test with SF-268 CNS, in the test on SK-OV-3 ovarian and in the test with SNB-75 CNS was over 100 µM in each case. In the test on TK-10 renal, this compound registered a TGI of over 100 µM.

With `COc1ccccc1/C=C1\C(=O)N(C(=O)Cc2ccccc2)N=C1C`, the TGI in the test on 786-0 renal, in the test on CAKI-1 renal, in the test on DMS 114 small cell lung, in the test with OVCAR-3 ovarian, in the test with SF-268 CNS and in the test with SNB-75 CNS was over 100 µM in each case. The compound also displayed a TGI in the test on TK-10 renal of over 100 µM.

On to `Cc1[nH]n(-c2nc(-c3ccccc3)cc(=O)[nH]2)c(=O)c1CCO`, for which the TGI with 786-0 renal, in the test on CAKI-1 renal, in the test on HOP-92 NSCLC, in the test with MDA-N, in the test with OVCAR-3 ovarian and in the test on SF-268 CNS was over 100 µM in each case. Moreover, the TGI with SK-OV-3 ovarian and in the test with TK-10 renal was over 100 µM each time.
